From the NIST ThermoML archive (doi:10.1016/j.jct.2018.06.015) come the findings set out here.

For data set [1] the following is noted: 100 kPa, Liquid; for speed of sound: Frequency=3 MHz, Single path-length method; for mass density: Vibrating tube method.
The nature of data set [2]: xn = mol fraction of the nth substance listed. The following applies: 100 kPa, Liquid, x2 = 0; for speed of sound: Frequency=3 MHz, Single path-length method; for mass density: Vibrating tube method.

The structures appear in SMILES notation. ± gives the expanded uncertainty stated by the source.

For `CCCCOCCOCCO` [3,6-dioxa-1-decanol], the speed of sound in data set [1] (293.15 K) is 1378.2 ± 2.5 m/s; in data set [1] (298.15 K), 1361.3 ± 2.5 m/s; in data set [1] (303.15 K), 1344.5 ± 2.5 m/s; in data set [1] (308.15 K), 1326.4 ± 2.5 m/s; in data set [1] (313.15 K), 1307.7 ± 2.5 m/s. The mass density is recorded as 952.288 ± 0.41 kg/m3 in data set [1] (293.15 K); 948.1 ± 0.41 kg/m3 in data set [1] (298.15 K); 943.909 ± 0.41 kg/m3 in data set [1] (303.15 K); 939.704 ± 0.41 kg/m3 in data set [1] (308.15 K); 935.503 ± 0.41 kg/m3 in data set [1] (313.15 K).
In the case of `CCCCCCCCCCO` [decan-1-ol] + CCCCOCCOCCO, the speed of sound came out at 1396.7 ± 2.5 m/s in data set [2] (293.15 K); 1379.4 ± 2.5 m/s in data set [2] (298.15 K); 1362.4 ± 2.5 m/s in data set [2] (303.15 K); 1345.6 ± 2.5 m/s in data set [2] (308.15 K); 1329.1 ± 2.5 m/s in data set [2] (313.15 K). Also, the mass density in data set [2] (293.15 K) is on record as 829.898 ± 0.42 kg/m3; in data set [2] (298.15 K), 826.489 ± 0.42 kg/m3; in data set [2] (303.15 K) it was 823.069 ± 0.42 kg/m3; in data set [2] (308.15 K), 819.635 ± 0.42 kg/m3; in data set [2] (313.15 K), 816.188 ± 0.42 kg/m3.
Turning to `CCCCCCO` [hexan-1-ol] + CCCCOCCOCCO, the speed of sound in data set [2] (293.15 K) is given as 1320.4 ± 2.5 m/s; in data set [2] (298.15 K), 1303.5 ± 2.5 m/s; in data set [2] (303.15 K), 1286.7 ± 2.5 m/s; in data set [2] (308.15 K) it was 1270 ± 2.5 m/s; in data set [2] (313.15 K) it was 1253.5 ± 2.5 m/s. Also, the mass density was found to be 819.239 ± 0.42 kg/m3 in data set [2] (293.15 K); 815.652 ± 0.42 kg/m3 in data set [2] (298.15 K); 812.043 ± 0.42 kg/m3 in data set [2] (303.15 K); 808.402 ± 0.42 kg/m3 in data set [2] (308.15 K); 804.743 ± 0.42 kg/m3 in data set [2] (313.15 K).
`CCCCCCCCO` [octan-1-ol] + CCCCOCCOCCO: the speed of sound was 1364.1 ± 2.4 m/s in data set [2] (293.15 K); 1347.3 ± 2.4 m/s in data set [2] (298.15 K); 1331 ± 2.4 m/s in data set [2] (303.15 K); 1314.3 ± 2.4 m/s in data set [2] (308.15 K); 1297.7 ± 2.4 m/s in data set [2] (313.15 K). Moreover, the mass density in data set [2] (293.15 K) is 825.337 ± 0.41 kg/m3; in data set [2] (298.15 K) it was 821.877 ± 0.41 kg/m3; in data set [2] (303.15 K), 818.4 ± 0.41 kg/m3; in data set [2] (308.15 K), 814.903 ± 0.41 kg/m3; in data set [2] (313.15 K), 811.385 ± 0.41 kg/m3.
